Measured values published in US9314506B2, “Methods for increasing insulin secretion by co-stimulation of corticotropin-releasing factor receptors” (Research Development Foundation, priority 2011, dated 2016).

B1: Ucn 1: Urocortin 1, agonist of both CRF1 and CRF2 receptors, expressed transgenically in mouse beta cells under doxycycline control (protein, listed as Homo sapiens)
chain: MRQAGRAALLAALLLLVQLCPGSSQRSPEAAGVQDPSLRWSPGARNQGGGARALLLLLAERFPRRAGPGRLGLGTAGERPRRDNPSLSIDLTFHLLRTLLELARTQSQRERAEQNRIIFDSVGK

Columns and labels:
Human islets = test: Insulin secretion from cultured human islets (insulin ELISA); type: cell-based; settings: FIG. 1; for Insulin secretion, single agonist: human islets, 60 min stimulation with glucose and peptide, single CRF receptor agonist added
Description: Human islets were handpicked twice and cultured overnight in CMRL-1066 medium (Invitrogen™) supplemented with 10% fetal bovine serum (FBS) and penicillin/streptomycin at 37° C., 5% CO2. Islets were starved in RPMI 1640 medium supplemented with 1.4 mM glucose and 0.1% BSA for 60 min and then were transferred into 1.2 mL of medium (RPMI 1640 supplemented with 2.8 mM glucose, 0.1% BSA) in 24-well plates at 100 islets/well. After 60 min, 600 μL of medium was collected for the determination of basal insulin release, and then islets were stimulated for 60 min with glucose and peptide as indicated in RPMI 1640 containing 0.1% BSA. Samples were diluted 20 times in RPMI 1640 with 0.1% BSA and were stored at −20° C. until determination of insulin concentrations with an insulin ELISA kit (Mercodia AB).
Peptides used in the studies were ovine CRF (oCRF), a selective CRF-R1 agonist; human Urocortin 3 (hUcn 3), a selective CRF-R2 agonist; antalarmin, a selective CRF-R1 antagonist; and astressin2-B, a selective CRF-R2 antagonist. […] Insulin secretion was enhanced by addition of either a CRF1 receptor agonist (oCRF) or a CRF2 receptor agonist (hUcn 3). […] The synergistic enhancement was inhibited by the addition of either a CRF1 receptor antagonist (antalarmin) or a CRF2 receptor antagonist (astressin2-B) to the cells (FIG. 1).

[1] = tested on: pancreatic beta cell mass; test: Beta cell mass in doxycycline-inducible, beta cell-specific Ucn 1 transgenic mice; type: in vivo; settings: bitransgenic mouse, doxycycline for 6 weeks (21 days to 9 weeks of age), vs single transgenic controls on dox or bitransgenic without dox; FIG. 5
Description: A transgenic mouse model that features beta cell-specific, doxycycline-inducible expression of Ucn 1 was generated by routine transgenic techniques. Single transgenic mice were obtained comprising either an expressible tetracycline transactivator (tTA) protein under the control of a pancreas-specific Insulin2 promoter (Jax Stock#008250 STOCK Tg(Ins2-rtTA)2Efr/J) or expressible Ucn1 under the control of a tTA protein-activated promoter (see, e.g., Sun et al., 2007 and Mallo, 2006). Single transgenic mice were crossed to generate the bitransgenic mice referenced in the studies. Thus, transgenic Ucn 1 expression in beta cells requires the presence of two transgenic cassettes as well as the administration of doxycycline. […] Bitransgenic animals, along with single transgenic controls, were administered doxycyline continuously as indicated from 21 days until 9 weeks of age. […] Sections were mounted in fluorescence mounting media containing dapi counterstain. Each section was scanned and the total pancreas surface area (based on the dapi counterstain) and the total beta cell surface area (based on the insulin-Cy3 stain) were quantified using standard morphometry techniques using Metamorph software. Beta cell area in each animal was expressed as the insulin+ surface area as a percentage of the total surface area (FIG. 5).

Molecule | Insulin secretion, single agonist (Human islets) | further results
oCRF: ovine CRF, a selective CRF-R1 agonist (SQEPPISLDLTFHLLREVLEMTKADQLAQQAHSNRKLLDIA) | enhanced | 
CCCCN(CC)c1nc(C)nc2c1c(C)c(C)n2-c1c(C)cc(C)cc1C [antalarmin] |  | Effect of antagonist on the synergistic enhancement of insulin secretion (Human islets; human islets co-stimulated with CRF1 and CRF2 receptor agonists, antagonist added): inhibited
hUcn 3: human Urocortin 3, a selective CRF-R2 agonist (FTLSLDVPTNIMNLLFNIAKAKNLRAQAAANAHLMAQI) | enhanced | 
B1 |  | Beta cell mass (insulin+ surface area as a percentage of total pancreas surface area) [1]: robust increase
